Data: ChEMBL document CHEMBL3885881, “DrugMatrix”

Organism: Rattus norvegicus
Assay type: toxicity, organism-based, Sprague-Dawley
Settings: in vivo, po, route oral GAVAGE, […]; for ALANINE AMINOTRANSFERASE / ALBUMIN / ALKALINE PHOSPHATASE / ASPARTATE AMINOTRANSFERASE / BLOOD UREA NITROGEN / CARBON DIOXIDE / CHOLESTEROL / CREATINE PHOSPHOKINASE / CREATININE / LACTATE DEHYDROGENASE / POTASSIUM / TOTAL BILIRUBIN / TOTAL PROTEIN / PHOSPHORUS / GLUCOSE / LIPASE: tissue Plasma
[1] = 0 mg/kg, 6 h, vehicle control, tissue Blood, dose level Control, time 0.25 day
[2] = 0 mg/kg, 6 h, vehicle control, dose level Control, time 0.25 day
[3] = 0 mg/kg, 24 h, vehicle control, tissue Blood, dose level Control, time 1 day
[4] = 0 mg/kg, 24 h, vehicle control, dose level Control, time 1 day
[5] = 100 mg/kg, 6 h, tissue Blood, dose level M1, time 0.25 day
[6] = 100 mg/kg, 6 h, dose level M1, time 0.25 day
[7] = 100 mg/kg, 24 h, tissue Blood, dose level M1, time 1 day
[8] = 100 mg/kg, 24 h, dose level M1, time 1 day
[9] = 860 mg/kg, 6 h, tissue Blood, dose level High, time 0.25 day
[10] = 860 mg/kg, 6 h, dose level High, time 0.25 day
[11] = 860 mg/kg, 24 h, tissue Blood, dose level High, time 1 day
[12] = 860 mg/kg, 24 h, dose level High, time 1 day

Description: DrugMatrix - Regimen: Single

CC(C)OC(=O)C(C)(C)Oc1ccc(C(=O)c2ccc(Cl)cc2)cc1 [FENOFIBRATE]
ABSOLUTE EOSINOPHIL [1]: 0 CELLS/uL
ABSOLUTE LYMPHOCYTE [1]: 8631 CELLS/uL
ABSOLUTE MONOCYTE [1]: 171.17 CELLS/uL
ABSOLUTE SEGMENTED NEUTROPHIL [1]: 1214.5 CELLS/uL
BASOPHIL [1]: 0%
EOSINOPHIL [1]: 0%
ERYTHROCYTE COUNT [1]: 5.42 x10E6/uL
HEMATOCRIT [1]: 34.7%
HEMOGLOBIN [1]: 13.67 G/DL
LYMPHOCYTE [1]: 86.17%
MEAN CORPUSCULAR HEMOGLOBIN CONCENTRATION [1]: 39.42 G/DL
MEAN CORPUSCULAR VOLUME [1]: 64.12 fL
NEUTROPHIL [1]: 12.17%
NUCLEATED RED BLOOD CELLS [1]: 0 /100WBC
ALANINE AMINOTRANSFERASE [2]: 61 u/L
ALBUMIN [2]: 4.67 G/DL
ALKALINE PHOSPHATASE [2]: 312.5 u/L
ASPARTATE AMINOTRANSFERASE [2]: 117.5 u/L
BLOOD UREA NITROGEN [2]: 8.67 mg/dL
CARBON DIOXIDE [2]: 26.33 mmol/L
CHOLESTEROL [2]: 72 mg/dL
CREATINE PHOSPHOKINASE [2]: 283.33 u/L
CREATININE [2]: 0.28 mg/dL
LACTATE DEHYDROGENASE [2]: 95.33 u/L
POTASSIUM [2]: 5.75 MEQ/L
TOTAL BILIRUBIN [2]: 0.3 mg/dL
TOTAL PROTEIN [2]: 5.43 G/DL
ABSOLUTE EOSINOPHIL [3]: 90.83 CELLS/uL
ABSOLUTE LYMPHOCYTE [3]: 14725.17 CELLS/uL
ABSOLUTE MONOCYTE [3]: 220 CELLS/uL
ABSOLUTE SEGMENTED NEUTROPHIL [3]: 1080.67 CELLS/uL
BASOPHIL [3]: 0%
EOSINOPHIL [3]: 0.67%
ERYTHROCYTE COUNT [3]: 5.3 x10E6/uL
HEMATOCRIT [3]: 33.4%
HEMOGLOBIN [3]: 13.4 G/DL
LYMPHOCYTE [3]: 91.17%
MEAN CORPUSCULAR HEMOGLOBIN CONCENTRATION [3]: 40.12 G/DL
MEAN CORPUSCULAR VOLUME [3]: 63.05 fL
NEUTROPHIL [3]: 6.67%
NUCLEATED RED BLOOD CELLS [3]: 0 /100WBC
ALANINE AMINOTRANSFERASE [4]: 69 u/L
ALBUMIN [4]: 4.33 G/DL
ALKALINE PHOSPHATASE [4]: 269 u/L
ASPARTATE AMINOTRANSFERASE [4]: 83.67 u/L
BLOOD UREA NITROGEN [4]: 14 mg/dL
CARBON DIOXIDE [4]: 29 mmol/L
CHOLESTEROL [4]: 66.67 mg/dL
CREATINE PHOSPHOKINASE [4]: 355 u/L
CREATININE [4]: 0.18 mg/dL
LACTATE DEHYDROGENASE [4]: 123.33 u/L
PHOSPHORUS [4]: 8.83 mg/dL
POTASSIUM [4]: 6.06 MEQ/L
TOTAL BILIRUBIN [4]: 0.2 mg/dL
TOTAL PROTEIN [4]: 5.72 G/DL
ABSOLUTE EOSINOPHIL [5]: 0 CELLS/uL
ABSOLUTE LYMPHOCYTE [5]: 15645.5 CELLS/uL
ABSOLUTE MONOCYTE [5]: 363.5 CELLS/uL
ABSOLUTE SEGMENTED NEUTROPHIL [5]: 1824.33 CELLS/uL
BASOPHIL [5]: 0%
EOSINOPHIL [5]: 0%
ERYTHROCYTE COUNT [5]: 5.47 x10E6/uL
HEMATOCRIT [5]: 34.7%
HEMOGLOBIN [5]: 13.57 G/DL
LYMPHOCYTE [5]: 88%
MEAN CORPUSCULAR HEMOGLOBIN CONCENTRATION [5]: 39.12 G/DL
MEAN CORPUSCULAR VOLUME [5]: 63.42 fL
NUCLEATED RED BLOOD CELLS [5]: 0 /100WBC
ALANINE AMINOTRANSFERASE [6]: 47.67 u/L
ALBUMIN [6]: 4.43 G/DL
ALKALINE PHOSPHATASE [6]: 355.83 u/L
ASPARTATE AMINOTRANSFERASE [6]: 100.33 u/L
BLOOD UREA NITROGEN [6]: 8.17 mg/dL
CARBON DIOXIDE [6]: 21.33 mmol/L
CHOLESTEROL [6]: 77.33 mg/dL
CREATINE PHOSPHOKINASE [6]: 740.17 u/L
CREATININE [6]: 0.18 mg/dL
LACTATE DEHYDROGENASE [6]: 327.83 u/L
PHOSPHORUS [6]: 12.3 mg/dL
TOTAL BILIRUBIN [6]: 0.22 mg/dL
TOTAL PROTEIN [6]: 5.92 G/DL
ABSOLUTE EOSINOPHIL [7]: 24.83 CELLS/uL
ABSOLUTE LYMPHOCYTE [7]: 12569.67 CELLS/uL
ABSOLUTE MONOCYTE [7]: 401.83 CELLS/uL
ABSOLUTE SEGMENTED NEUTROPHIL [7]: 920.33 CELLS/uL
BASOPHIL [7]: 0%
EOSINOPHIL [7]: 0.17%
ERYTHROCYTE COUNT [7]: 4.96 x10E6/uL
HEMATOCRIT [7]: 32.78%
HEMOGLOBIN [7]: 13.08 G/DL
LYMPHOCYTE [7]: 90.5%
MEAN CORPUSCULAR HEMOGLOBIN [7]: 26.38 pg
MEAN CORPUSCULAR HEMOGLOBIN CONCENTRATION [7]: 39.95 G/DL
MEAN CORPUSCULAR VOLUME [7]: 66.03 fL
NEUTROPHIL [7]: 6.67%
NUCLEATED RED BLOOD CELLS [7]: 0.33 /100WBC
ALANINE AMINOTRANSFERASE [8]: 74.83 u/L
ALBUMIN [8]: 4.45 G/DL
ALKALINE PHOSPHATASE [8]: 321.17 u/L
ASPARTATE AMINOTRANSFERASE [8]: 86.17 u/L
BLOOD UREA NITROGEN [8]: 13 mg/dL
CARBON DIOXIDE [8]: 30.83 mmol/L
CHOLESTEROL [8]: 42.83 mg/dL
CREATINE PHOSPHOKINASE [8]: 282.83 u/L
CREATININE [8]: 0.19 mg/dL
GLUCOSE [8]: 147.17 mg/dL
LIPASE [8]: 9.17 u/L
TOTAL BILIRUBIN [8]: 0.15 mg/dL
TOTAL PROTEIN [8]: 5.55 G/DL
ABSOLUTE EOSINOPHIL [9]: 0 CELLS/uL
ABSOLUTE LYMPHOCYTE [9]: 9866.33 CELLS/uL
ABSOLUTE MONOCYTE [9]: 201 CELLS/uL
ABSOLUTE SEGMENTED NEUTROPHIL [9]: 1482.67 CELLS/uL
BASOPHIL [9]: 0%
EOSINOPHIL [9]: 0%
ERYTHROCYTE COUNT [9]: 5.53 x10E6/uL
HEMATOCRIT [9]: 35.82%
HEMOGLOBIN [9]: 14.02 G/DL
LYMPHOCYTE [9]: 85%
MEAN CORPUSCULAR HEMOGLOBIN CONCENTRATION [9]: 39.15 G/DL
MEAN CORPUSCULAR VOLUME [9]: 64.97 fL
NEUTROPHIL [9]: 13.17%
NUCLEATED RED BLOOD CELLS [9]: 0 /100WBC
ALANINE AMINOTRANSFERASE [10]: 53.5 u/L
ALBUMIN [10]: 4.48 G/DL
ALKALINE PHOSPHATASE [10]: 282.5 u/L
ASPARTATE AMINOTRANSFERASE [10]: 93.33 u/L
BLOOD UREA NITROGEN [10]: 9 mg/dL
CARBON DIOXIDE [10]: 26 mmol/L
CHOLESTEROL [10]: 64 mg/dL
CREATINE PHOSPHOKINASE [10]: 406.33 u/L
CREATININE [10]: 0.16 mg/dL
LACTATE DEHYDROGENASE [10]: 198.83 u/L
TOTAL BILIRUBIN [10]: 0.2 mg/dL
TOTAL PROTEIN [10]: 6.02 G/DL
ABSOLUTE EOSINOPHIL [11]: 43 CELLS/uL
ABSOLUTE LYMPHOCYTE [11]: 12968.67 CELLS/uL
ABSOLUTE MONOCYTE [11]: 388.33 CELLS/uL
ABSOLUTE SEGMENTED NEUTROPHIL [11]: 1900 CELLS/uL
BASOPHIL [11]: 0%
EOSINOPHIL [11]: 0.33%
ERYTHROCYTE COUNT [11]: 5.77 x10E6/uL
HEMATOCRIT [11]: 35.63%
HEMOGLOBIN [11]: 14.08 G/DL
LYMPHOCYTE [11]: 85.17%
MEAN CORPUSCULAR HEMOGLOBIN CONCENTRATION [11]: 39.53 G/DL
MEAN CORPUSCULAR VOLUME [11]: 61.83 fL
NEUTROPHIL [11]: 12%
NUCLEATED RED BLOOD CELLS [11]: 0 /100WBC
ALANINE AMINOTRANSFERASE [12]: 115.33 u/L
ALBUMIN [12]: 4.42 G/DL
ALKALINE PHOSPHATASE [12]: 359 u/L
ASPARTATE AMINOTRANSFERASE [12]: 123.33 u/L
BLOOD UREA NITROGEN [12]: 10.33 mg/dL
CARBON DIOXIDE [12]: 27.83 mmol/L
CHOLESTEROL [12]: 51.5 mg/dL
CREATINE PHOSPHOKINASE [12]: 497 u/L
CREATININE [12]: 0.24 mg/dL
GLUCOSE [12]: 134.17 mg/dL
LACTATE DEHYDROGENASE [12]: 204.83 u/L
LIPASE [12]: 9 u/L
POTASSIUM [12]: 5.95 MEQ/L
TOTAL BILIRUBIN [12]: 0.22 mg/dL
TOTAL PROTEIN [12]: 5.72 G/DL
